Data taken from patent US20060229254A1, “Compounds having prolyl oligopeptidase inhibitory activity” (priority 2003, published 2006).

Biological target: T1, pig brain prolyl oligopeptidase (Sus scrofa, UniProt P23687)
T1 construct: The brains were homogenized with a glass-teflon homogenisator in 3 volumes (w/v) of ice-cold 0.1 M sodium-potassium phosphate buffer; from tissue; host or cells: pig brain (whole brain excluding cerebellum and most of the brain stem), 10000 g supernatant of the homogenate
Test: Inhibition of pig brain prolyl oligopeptidase (Suc-Gly-Pro-AMC fluorometric microplate assay)
Assay type: biochemical
Details: pig brain supernatant, Suc-Gly-Pro-AMC substrate, 30 min preincubation, 30° C., pH 7.0
Method: The inhibitory effect of the novel compounds on POP activity of pig brain was determined with a method based on that described by Toide et al. (Toide, K, Iwamoto, Y., Fujiwara. T., Abe, H., J. Pharmacol. Exp. Ther., 1995, 274, 1370-1378) for the rat enzyme.
The whole pig brains, excluding cerebellum and most of the brain stem, of three pigs were placed in liquid nitrogen within 30 min from killing and stored at −80° C. until homogenized. The brains were homogenized with a glass-teflon homogenisator in 3 volumes (w/v) of ice-cold 0.1 M sodium-potassium phosphate buffer (pH 7.0) and the homogenates were centrifuged for 20 min at 4° C. at 10000 g. The supernatants were collected, pooled and stored in small aliquots at −80° C. until used. The supernatant was thawn in ice just before activity assay and diluted in a ratio 1:2 with homogenisation buffer (=enzyme preparation).
In the microplate assay procedure, 10 μl of enzyme preparation was preincubated with 460 μl of 0.1 M sodium-potassium phosphate buffer (pH 7.0) and 5 μl of a solution of novel compound dissolved in DMSO and diluted with 0.1 M sodium-potassium phosphate buffer at 30° C. for 30 min. The controls contained 10 μl enzyme preparation and 465 μl of 0.1 M sodium-potassium phosphate buffer (pH 7.0). The reaction was initiated by adding 25 μl of 4 mM Suc-Gly-Pro-AMC (AMC: 7-amido-4-methylcoumarin) dissolved in 0.1 M sodium-potassium phosphate buffer (pH 7.0), and the mixture was incubated at 30° C. for 60 min. The reaction was terminated by adding 500 μl of 1 M sodium acetate buffer (pH 4.2).
Formation of 7-amido-4-methylcoumarin was determined fluorometrically with microplate fluorescence reader (excitation at 360 nm and emission at 460 nm). The final concentration of novel compounds in the assay mixture varied from 10^−12 M to 10^−4 M.
The prolyl oligopeptidase activity was calculated with the following formula in the presence of various concentrations of novel compounds. To reveal the inhibitory potency of the novel compound, activities (% of control) were plotted against the log concentration of the compound, and the IC50 value was determined by non-linear regression utilizing GraphPad Prism software. Activity (% of control)=a/b×100, where
a=fluorescence intensity in the presence of a novel compound
b=fluorescence intensity without a novel compound (control)

T1 sequence (P23687 whole entry): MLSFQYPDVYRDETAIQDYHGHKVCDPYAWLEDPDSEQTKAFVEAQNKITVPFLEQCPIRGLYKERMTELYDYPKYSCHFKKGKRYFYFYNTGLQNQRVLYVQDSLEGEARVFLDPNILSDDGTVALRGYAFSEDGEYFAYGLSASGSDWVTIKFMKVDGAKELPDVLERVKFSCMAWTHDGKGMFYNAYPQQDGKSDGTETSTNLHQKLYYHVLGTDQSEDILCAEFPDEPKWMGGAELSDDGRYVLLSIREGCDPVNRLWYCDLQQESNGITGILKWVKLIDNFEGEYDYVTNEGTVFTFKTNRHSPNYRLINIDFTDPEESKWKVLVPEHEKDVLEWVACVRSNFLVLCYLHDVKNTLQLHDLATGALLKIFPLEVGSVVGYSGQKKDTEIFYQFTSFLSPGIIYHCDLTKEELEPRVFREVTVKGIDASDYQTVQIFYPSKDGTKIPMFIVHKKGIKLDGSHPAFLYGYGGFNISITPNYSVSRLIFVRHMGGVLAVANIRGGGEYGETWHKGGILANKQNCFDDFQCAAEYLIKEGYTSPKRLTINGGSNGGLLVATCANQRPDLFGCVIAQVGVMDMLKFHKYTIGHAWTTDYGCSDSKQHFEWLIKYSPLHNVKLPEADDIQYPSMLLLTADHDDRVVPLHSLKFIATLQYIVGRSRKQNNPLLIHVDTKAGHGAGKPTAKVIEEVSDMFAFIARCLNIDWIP

Row | Compound | IC50 [nM]
1 | 4-Phenylbutanoyl-5(R)-methyl-L-prolyl-pyrrolidine [Example 7] | 0.71
2 | 4-Phenylbutanoyl-5(S)-methyl-L-prolyl-pyrrolidine [Example 14] | 1.4
3 | N#C[C@@H]1CCCN1C(=O)C1CCC=C1C(=O)NCc1ccccc1 (stereo partly drawn) [Example 1, 2-(Benzylcarbamoyl)-cyclopent-2-ene-carboxylic acid 2(S)-cyanopyrrolidine amide] | 0.38
4 | O=C(NCc1ccccc1)C1=CCCC1C(=O)N1CCCC1 (stereo not shown) [Example 3, 2-Benzylcarbamoyl-cyclopent-2-ene-carboxylic acid pyrrolidine amide] | 9
5 | O=C(Cc1ccccc1)C1=CCCC1C(=O)N1CCCC1 (stereo not shown) [Example 4, 2-Benzylcarbonyl-cyclopent-2-ene-carboxylic acid pyrrolidine amide] | 7.7
6 | CC(C)(C)OC(=O)N1[C@H](C(=O)N2CCCC2)CC[C@@H]1C(C)(C)C [Example 9, Boc-5(R)-tert-butyl-L-prolyl-pyrrolidine] | 2.2
7 | CC(C)(C)[C@H]1CC[C@@H](C(=O)N2CCCC2)N1C(=O)CCCc1ccccc1 [Example 11, 4-Phenylbutanoyl-5(R)-tert-butyl-L-prolyl-pyrrolidine] | 1.6
8 | CC(C)(C)OC(=O)N1[C@H](C(C)(C)C)CC[C@H]1C(=O)N1CCCC1 [Example 16, Boc-5(S)-tert-butyl-L-prolyl-pyrrolidine] | 9.2

Now those with a lower IC50, led by results:

Row | IC50 [nM] | Compound
9 | 0.32 | O=C(NCc1ccccc1)C1=CCCC1C(=O)N1CCC[C@H]1C(=O)CO (single isomer, unassigned) [Example 2]
10 | 0.24 | CC(C)(C)[C@H]1CC[C@@H](C(=O)N2CCC[C@H]2C(=O)CO)N1C(=O)CCCc1ccccc1 [Example 12, 4-Phenylbutanoyl-5(R)-tert-butyl-L-prolyl-2(S)-(hydroxyacetyl)-pyrrolidine]
11 | 0.21 | N#C[C@@H]1CCCN1C(=O)C1CCC=C1C(=O)CCCc1ccccc1 (stereo partly drawn) [Example 5, 2-(4-Phenylbutanoyl)-cyclopent-2-ene-carboxylic acid 2(S)-cyanopyrrolidine amide]
12 | 0.17 | C[C@H]1CC[C@@H](C(=O)N2CCC[C@H]2C(=O)CO)N1C(=O)CCCc1ccccc1 [Example 15, 4-Phenylbutanoyl-5(S)-methyl-L-prolyl-2(S)-(hydroxyacetyl)-pyrrolidine]
13 | 0.15 | C[C@@H]1CC[C@@H](C(=O)N2CCC[C@H]2C(=O)CO)N1C(=O)CCCc1ccccc1 [Example 8, 4-Phenylbutanoyl-5(R)-methyl-L-prolyl-2(S)-(hydroxyacetyl)-pyrrolidine]
